# Experiment: Henry solubility constant Hcp at 310 K (mol/(m3 Pa))
# Conditions: reference: Mirvish et al. (1976)
row,SMILES,Henry solubility constant Hcp at 310 K
1,"CC1CN(N=O)CC(C)N1N=O (stereo not given) [2,6-dimethyldinitrosopiperazine]",> 190
2,"CC1CN(N=O)CC(C)O1 (stereo not given) [2,6-dimethylnitrosomorpholine]",35
3,O=NN1CCOCC1 [4-nitrosomorpholine],390
4,CC(C)N(N=O)C(C)C [N-(1-methylethyl)-N-nitroso-2-propanamine],1.2
5,CN(Cc1ccccc1)N=O [N-methyl-N-nitrosobenzenemethanamine],0.79
6,CCOC(=O)N(C)N=O [N-nitroso-N-methylurethane],0.39
7,CCCCN(CCCC)N=O [N-nitrosodi-N-butylamine],0.72
8,CCN(CC)N=O [N-nitrosodiethylamine],1.4
9,CN(C)N=O [N-nitrosodimethylamine],5.2
10,CCCN(CCC)N=O [N-nitrosodipropylamine],1.8
11,O=NN1CCCCC1 [N-nitrosopiperidine],11
12,O=NN1CCN(N=O)CC1 [dinitrosopiperazine],> 190
13,CCCCN(CC)N=O [ethylbutylnitrosamine],0.99
14,CCN(C#N)N=O [ethylnitrosocyanamide],0.26
15,CCCCN(C)N=O [methylbutylnitrosamine],1.7
16,CC(=O)N(C)N=O [methylnitrosoacetamide],0.086
17,CN(N=O)C(N)=O [methylnitrosourea],> 190
18,CCCCCN(C)N=O [methylpentylnitrosamine],2
19,O=NN1CCC1 [nitrosoazetidine],> 190
20,O=NN1CCCCCC1 [nitrosohexamethyleneimine],43
